Values after ≈ are worked out from the molar mass of the structure shown. Values joined by “and” are separate entries in the source; they are usually repeats but may differ in a detail not shown here. Equal values may be shown once. Read-outs that look alike come from different tables or passages of the source.
How the values were obtained:
[1] = Toxicity, dose escalation study in mice
Description: Toxicity was assessed using a dose escalation study. This study was performed with ten C57BL/6 mice per candidate. Every two days, the mice were administered an increased concentration of the drug, and monitored for detrimental effects. The administration scheme was 50, 100, 200, 400, 600, 800 and 1000 mg/kg.

[2] = system: H37Rv strain of Mycobacterium tuberculosis; experiment: microbe, parasite or virus in culture; assay type: cell-based
[3] = system: wild type of M.tb; experiment: MIC, secondary screening, wild type; assay type: cell-based, Mycobacterium tuberculosis; conditions: WT
[4] = system: monkey kidney cells (Vero); experiment: In vitro toxicity, Vero cells; assay type: cell-based; conditions: Primates
Description: Twenty six compounds (including 37, 59 and 109) were tested in an in vitro model of toxicity using monkey kidney cells (Vero) and human cervical cancer cells (HeLa) using methods well known to those skilled in the art. The data from this toxicity testing and the MIC data were used to calculate a selectivity index (SI), the ratio of IC50:MIC (Table 15). Selectivity Indexes were ranging from 1.76 to 16.67.

[5] = assay type: in vitro ADME; conditions: 6 h
Description: (§1) Initially, analytical methods for determination of the compounds had been developed that allowed to carry out all the PK experiments, sec FIG. 29. Here is a brief description of the experiment: (1) plasma spiked with tested compounds and 10 uL of Terfenadine or plasma samples (200 uL) added; (2) ACN (2 mL) added to precipitate protein and spin at 2,500 rpm; (3) evaporate supernatant to dryness; (4) add 200 uL of the diluting solvent: methanol (with 0.1% of trifluoroacetic acid): ammonium acetate (80/20); (5) vortex, spin, and use supernatant; (6) run LC/MS/MS on Sciex API 3000.
Biostability studies of the compounds in plasma were carried out using concentrations 1 and 15 mg/ml. The compounds were incubated for 1, 2, 3 & 6 hr at 37° C. (Table 18).

[6] = system: M. tuberculosis H37Rv; experiment: In vivo efficacy, mice infected i.v. with M. tuberculosis, CFU in spleen and lungs; design: species or system C57BL/6 mice
[7] = in vivo; design: species or system mice; conditions: mouse
Description: as §1
Pilot PK study of the compounds 37, 59, and 109 in mice was conducted using a cassette dosing: all the three analogs were formulated together in saline at 1.5 mg/mL, and administered to mice simultaneously orally at 25 mg/kg, peritoneally at 6 mg/kg, and intravenously. […] Obtained data are presented on FIGS. 30, 31, and 32 (tested compounds were studied under the NCI′ indexation NSC) and summarized in Table 19.

[8] = system: cells; experiment: LD50 for selectivity index (Table 10); assay type: cell-based, Mycobacterium tuberculosis; conditions: for SI (Selectivity Index): LD50 : MIC
Excerpt: Table 10 lists MIC and LD50 data for selected compounds. […] Table 11 lists MIC data for purified substituted ethylene diamines in comparison to ethambutol (EMB).

[9] = Maximum tolerated dose, one-time gavage dose in mice; assay type: in vivo
Description: […] Each dose of each compound consisted of one group of 3 mice. Monitoring of the mice was done twice a day for the duration of the experiment. […] The MTD (mg/kg) is the highest dose that results in no lethality/tissue abnormality.
• 1. […] The compounds are dissolved in the appropriate concentration of ethanol in distilled water and administered in a volume of 0.2 ml per mouse. • 2. Observation of mice: Mice will be observed 4 and 6 hours post administration, then twice daily for one week. Survival and body weight of mice will be closely monitored throughout the study. • 3. […] Critical organs will be aseptically removed and observed; tissues from the liver, heart, and kidneys are extracted and placed into 10% formalin solution. These fixed tissues are sectioned and examined for abnormalities resulting from drug toxicity.

[10] = system: M. tuberculosis H37Rv; experiment: Standard chronic mouse model of tuberculosis, CFU in lung; assay type: in vivo, C57BL/6 female mice; conditions: INH+RIF+EMB at 25, 20 and 100 mg/kg, wk 4
[11] = system: M. tuberculosis H37Rv; experiment: MIC by BACTEC 460; assay type: cell-based, Mycobacterium tuberculosis; conditions: Mycobacterium tuberculosis, H37RV, reference in head of Table 11; read-out: BACTEC MIC of EMB
[12] = system: H37Rv strain of Mycobacterium tuberculosis; conditions: background statement; cited from earlier work
[13] = system: RIF^R M. tuberculosis isolate 2482; experiment: microbe, parasite or virus in culture; assay type: cell-based; conditions: strain 2482
[14] = system: RIF^R M. tuberculosis strain 2482; assay type: cell-based; conditions: strain 2482
[15] = system: RIF^R M. tuberculosis isolate 3185; experiment: microbe, parasite or virus in culture; assay type: cell-based
[16] = system: M. tuberculosis H37Rv (Pasteur); experiment: Rapid in vivo model of TB, body weight of infected mice; design: species or system C3H female mice; conditions: Rif (2 mg/kg)-EMB (10 mg/kg) combination
[17] = system: RIF^R M. tuberculosis strain 3185; assay type: cell-based; conditions: strain 3185
[18] = Mycobacterium tuberculosis, H37RV, Table 10, from uM and MW, read-out: MIC
[19] = Mycobacterium tuberculosis, H37RV, Table 10, read-out: MIC
[20] = Mycobacterium tuberculosis, H37RV, Table 15, read-out: MIC
[21] = Mycobacterium tuberculosis, value in brackets, read-out: MIC (or uM)
[22] = Mycobacterium tuberculosis, EMB, RL241, Cmpd#59 as 2HCl salt, Cmpd#109 as 2CF3COOH salt, read-out: MIC
[23] = concentration at which 50% of the cells are killed

Compound: C[C@@H]1[C@H]2C[C@@H](C[C@H]1NCCNC1CCCCCCC1)C2(C)C [Compound 59, N-(Cyclooctyl)-N′-(1R, 2R, 3R, 5S)-(−)-isopinocampheylethane-1,2-diamine]
- tolerated dose ([1]; C57BL/6, mouse, in vivo): 1000 mg/kg
- MIC [2, 18]: 6.66 µg/mL
- MIC [2, 19]: 15.6 µM
- MIC [2, 20]: 15.6 µM
- MIC [3, 21]: 0.13 µM
- MIC [3, 22]: 0.05 µg/mL
- IC50 [4]: 36 µM
- Biostability in plasma (% ↓) ([5]; dog): stable
- Biostability in plasma (% ↓) ([5]; human): stable
- Biostability in plasma (% ↓) ([5]; mouse): stable
- Biostability in plasma (% ↓) ([5]; rat): stable
- anti-tuberculosis activity compared with EMB ([6]; 10 mg/kg, B6 mice, 5×10^5 CFU, chemotherapy from day 20): comparable to that of EMB at 100 mg/kg
- PK profiling (AUC, Cmax) [7]: relatively poor PK profiling
- AUC ([7]; ip, 6 mg/kg): 272 ng·h/mL
- Cmax ([7]; ip, 6 mg/kg): 217 ng/mL
- Urine excretion (%) ([7]; ip, 6 mg/kg): <0.01%
- bioavailability ([7]; ip, 6 mg/kg): 35%
- half-life ([7]; ip, 6 mg/kg): 9.7 h
- AUC ([7]; iv, 3 mg/kg): 384 ng·h/mL
- Cmax ([7]; iv, 3 mg/kg): 296 ng/mL
- Urine excretion (%) ([7]; iv, 3 mg/kg): 1.9%
- clearance ([7]; iv, 3 mg/kg): 134 mL/min/kg
- half-life ([7]; iv, 3 mg/kg): 6.4 h
- AUC ([7]; po, 25 mg/kg): 169 ng·h/mL
- Cmax ([7]; po, 25 mg/kg): 28.7 ng/mL
- bioavailability ([7]; po, 25 mg/kg): 0.9%
- SI (Selectivity Index) [8]: 2.048
- LD50 [8, 23]: 32 µM
- LD50 ([8]; from uM and MW): 13.632 µg/mL

Compound: CC1(C)C2CCC(CNCCNCC(c3ccccc3)c3ccccc3)[C@@H]1C2 (stereo partly drawn) [Compound 37, N-(2,2-Diphenylethyl)-N′-(−)-cis-(myrtanyl)ethane-1,2-diamine]
- fatal dose ([1]; C57BL/6, mouse, in vivo, 2 days): 100 mg/kg
- toxic dose ([1]; dose escalation): 100 mg/kg
- MIC [2, 18]: 7.75 µg/mL
- MIC [2, 19]: 15.6 µM
- MIC [2, 20]: 7.8 µM
- Day of death ([9]; 37 at 100 mg/kg (Table 16)): 1
- Mice ([9]; 37 at 100 mg/kg (Table 16), day 1): 2 to 4 h
- Mice ([9]; 37 at 100 mg/kg (Table 16), day 2): 2
- Mice ([9]; 37 at 100 mg/kg (Table 16), day 3): 2
- Mice ([9]; 37 at 100 mg/kg (Table 16), day 4): 2
- Mice ([9]; 37 at 100 mg/kg (Table 16), day 6): 2
- Mice ([9]; 37 at 100 mg/kg (Table 16), day 7): 2
- Mice ([9]; 37 at 100 mg/kg (Table 17), day 1): 3
- Mice ([9]; 37 at 100 mg/kg (Table 17), day 2): 3
- Mice ([9]; 37 at 100 mg/kg (Table 17), day 3): 3
- Mice ([9]; 37 at 100 mg/kg (Table 17), day 4): 3
- Mice ([9]; 37 at 100 mg/kg (Table 17), day 5): 3
- Mice ([9]; 37 at 100 mg/kg (Table 17), day 6): 3
- Mice ([9]; 37 at 100 mg/kg (Table 17), day 7): 3
- Mice ([9]; 37 at 300 mg/kg, day 1): 3
- Mice ([9]; 37 at 300 mg/kg, day 2): 3
- Mice ([9]; 37 at 300 mg/kg, day 3): 3
- Mice ([9]; 37 at 300 mg/kg, day 4): 3
- Mice ([9]; 37 at 300 mg/kg, day 5): 3
- Mice ([9]; 37 at 300 mg/kg, day 6): 3
- Mice ([9]; 37 at 300 mg/kg, day 7): 3
- changes in organs ([9]; mice surviving one week): No visible changes in organs
- IC50 [4]: 32 µM
- Biostability in plasma (% ↓) ([5]; dog): stable
- Biostability in plasma (% ↓) ([5]; human): 20% ↓
- Biostability in plasma (% ↓) ([5]; mouse): stable
- Biostability in plasma (% ↓) ([5]; rat): 35% ↓
- AUC ([7]; ip, 6 mg/kg): 1370 ng·h/mL
- Cmax ([7]; ip, 6 mg/kg): 630 ng/mL
- Urine excretion (%) ([7]; ip, 6 mg/kg): <0.01%
- bioavailability ([7]; ip, 6 mg/kg): 72%
- half-life ([7]; ip, 6 mg/kg): 4.9 h
- AUC ([7]; iv, 3 mg/kg): 954 ng·h/mL
- Cmax ([7]; iv, 3 mg/kg): 970 ng/mL
- Urine excretion (%) ([7]; iv, 3 mg/kg): .71%
- clearance ([7]; iv, 3 mg/kg): 58.8 mL/min/kg
- half-life ([7]; iv, 3 mg/kg): 4.8 h
- AUC ([7]; po, 25 mg/kg): 1600 ng·h/mL
- Cmax ([7]; po, 25 mg/kg): 263 ng/mL
- bioavailability ([7]; po, 25 mg/kg): 3.3%
- SI (Selectivity Index) [8]: 2.048
- LD50 [8, 23]: 32 µM
- LD50 ([8]; from uM and MW): 15.872 µg/mL

Compound: CC[C@@H](CO)NCCN[C@@H](CC)CO [EMB, Ethambutol, reference compound]
- CFU in lung [10]: 3.7 log10CFU
- MIC [2]: 8.37 µM and 7.25 µM
- MIC ([2]; Mycobacterium tuberculosis, H37RV, read-out: MIC): 7.19 µM
- MIC [11]: 2.5 µg/mL
- MIC [3, 21]: 11.1 µM
- MIC [3, 22]: 3.12 µg/mL
- MIC ([3]; EMB, RL241, Cmpd#59 as 2HCl salt, Cmpd#109 as 2CF3COOH salt): 1.6 to 1.8 µg/mL
- Minimum Inhibition Concentration (MIC) [12]: about 5 μg/ml
- concentration to which the strain was susceptible [13]: 2.5 mg/L
- interaction of 0.5 MIC ethambutol with rifampicin [14]: did not show any additive or synergistic activity
- decrease of load of bacteria in organs ([6]; during 4-6 weeks of chemotherapy): 1.0-2.0 logs
- MIC ([15]; Mycobacterium tuberculosis, read-out: MIC (BACTEC)): 2.5 µg/mL (≈ 12.2 µM)
- concentration to which the strain was susceptible ([15]; strain 3185): 2.5 mg/L
- body weight of infected mice [16]: No improvement
- interaction of 0.5 MIC ethambutol with rifampicin [17]: synergy was not observed

Source: US8202910B2 (Sequella, Inc., priority 2006, dated 2012)
